From ChEMBL document CHEMBL1201862, “PubChem BioAssay data set” (2004)
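1) Cells in 96-well plates. 2) Compound, 48 h, 5 concentrations. 3) Linear interpolation between surrounding doses. 4) Unreached endpoint = highest concentration. At the GI50, growth is halved.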 The source made the active and inactive calls. No stated cut-off is given here; in the data, active = GI50 up to about 1.1 µM and inactive = higher.

What was measured:
Assay in all cases: inhibition of tumour cell growth, NCI panel, 48 h
[1] = system: 786-0
[2] = system: A498
[3] = system: A549
[4] = system: EKVX
[5] = system: HCT-15
[6] = system: HL-60
[7] = system: HOP-92
[8] = system: M14
[9] = system: MDA-MB-231
[10] = system: NCI-H226
[11] = system: OVCAR-8
[12] = system: PC-3
[13] = system: SF-268
[14] = system: SF-295
[15] = system: SF-539
[16] = system: SK-MEL-28
[17] = system: SK-OV-3
[18] = system: SW-620
[19] = system: UACC-257
[20] = system: CCRF-CEM

SMILES | GI50 [1] | GI50 [2] | GI50 [3] | GI50 [4] | GI50 [5] [µM] | GI50 [6] | GI50 [7] | GI50 [8] | GI50 [9] | GI50 [10] | GI50 [11] | GI50 [12] | GI50 [13] | GI50 [14] | GI50 [15] | GI50 [16] | GI50 [17] | GI50 [18] | GI50 [19] | GI50 [20]
CN(CCNC(=O)c1nn(C)c2c1Cc1ccccc1-2)CCNC(=O)c1nn(C)c2c1Cc1ccccc1-2 | 14.5 µM (inactive) | 15.2 µM (inactive) | 15.8 µM (inactive) | 23.2 µM (inactive) | 16.7 | 12.9 µM (inactive) | 12.9 µM (inactive) | 12.6 µM (inactive) | 19 µM (inactive) | 18.3 µM (inactive) | 17.5 µM (inactive) | 18.4 µM (inactive) | 14.7 µM (inactive) | 16 µM (inactive) | 14.3 µM (inactive) | 16.1 µM (inactive) | 18.2 µM (inactive) | 18.7 µM (inactive) | 14 µM (inactive) | 
COC(=O)C(CCC1C=CCC1)/N=C\c1ccccc1 (stereo not given) | 66.2 µM (inactive) | 81.5 µM (inactive) | 49.9 µM (inactive) | 44.8 µM (inactive) | 43.6 | 36.8 µM (inactive) | 67 µM (inactive) | 46.2 µM (inactive) | 68.9 µM (inactive) | 56.8 µM (inactive) | 68.2 µM (inactive) | 35.6 µM (inactive) | 99.8 µM (inactive) | 57.7 µM (inactive) | > 100 µM (inactive) | > 100 µM (inactive) | > 100 µM (inactive) | > 100 µM (inactive) | 38.2 µM (inactive) | 56 µM (inactive)
O=[N+]([O-])c1cc(Br)cc2cc(Cl)cnc12 | > 100 µM (inactive) | 75.7 µM (inactive) | > 100 µM (inactive) | > 100 µM (inactive) | > 100 | 57.8 µM (inactive) | 1.02 µM (active) | > 100 µM (inactive) | > 100 µM (inactive) | > 100 µM (inactive) | 62.4 µM (inactive) | > 100 µM (inactive) | 89.9 µM (inactive) | 70.6 µM (inactive) | > 100 µM (inactive) | > 100 µM (inactive) | 86.9 µM (inactive) | 14.5 µM (inactive) | > 100 µM (inactive) | > 100 µM (inactive)
CCCCCCCCCCCCCCC(C(=O)[O-])[n+]1ccccc1 (stereo not given) | > 100 µM (inactive) | > 100 µM (inactive) | > 100 µM (inactive) | > 100 µM (inactive) | > 100 | 98.4 µM (inactive) | > 100 µM (inactive) | > 100 µM (inactive) | > 100 µM (inactive) | > 100 µM (inactive) | 98.6 µM (inactive) | 18.8 µM (inactive) | > 100 µM (inactive) | > 100 µM (inactive) | > 100 µM (inactive) | > 100 µM (inactive) | > 100 µM (inactive) | > 100 µM (inactive) | > 100 µM (inactive) | > 100 µM (inactive)
CN(/N=C(\C(=O)O)c1ccccc1)C1=NCCCN1 | > 100 µM (inactive) | > 100 µM (inactive) | > 100 µM (inactive) | 73.3 µM (inactive) | > 100 | > 100 µM (inactive) | 80.9 µM (inactive) |  | > 100 µM (inactive) | > 100 µM (inactive) | > 100 µM (inactive) | > 100 µM (inactive) | > 100 µM (inactive) | > 100 µM (inactive) | > 100 µM (inactive) | > 100 µM (inactive) | > 100 µM (inactive) | > 100 µM (inactive) | > 100 µM (inactive) | > 100 µM (inactive)
CC(C)(C)c1cc(C2NCCO2)cc(C(C)(C)C)c1O (stereo not given) | 65.8 µM (inactive) | > 100 µM (inactive) |  | 77.3 µM (inactive) | 57 | > 100 µM (inactive) | 74.6 µM (inactive) |  | 20.6 µM (inactive) | > 100 µM (inactive) | 77.3 µM (inactive) | 82 µM (inactive) | 32.4 µM (inactive) | 34.6 µM (inactive) | > 100 µM (inactive) | > 100 µM (inactive) | 32.1 µM (inactive) | > 100 µM (inactive) | > 100 µM (inactive) | > 100 µM (inactive)
FC(F)(F)c1ccc2nc3n(c2c1)C(c1c(Cl)cccc1Cl)SC3 (stereo not given) | 14.7 µM (inactive) | 19.8 µM (inactive) | 15 µM (inactive) | 13.8 µM (inactive) | 14.2 | 2.47 µM (inactive) | 4.65 µM (inactive) | 16 µM (inactive) | 18.1 µM (inactive) | 17.3 µM (inactive) | 19.6 µM (inactive) | 14.9 µM (inactive) | 21.6 µM (inactive) | 16.4 µM (inactive) | 15.7 µM (inactive) | 14.9 µM (inactive) | 14 µM (inactive) | 17.8 µM (inactive) | 14.1 µM (inactive) | 
C=CC[C@]12C[C@@H](C(=O)OC)N(C(=O)OC)[C@H]1N(S(=O)(=O)c1ccccc1)c1ccccc12 | > 100 µM (inactive) | 81.1 µM (inactive) | 88.5 µM (inactive) | 31.2 µM (inactive) | 40.1 | 29.6 µM (inactive) | 42.6 µM (inactive) |  | 36.2 µM (inactive) | > 100 µM (inactive) | > 100 µM (inactive) | 34.6 µM (inactive) | 78.2 µM (inactive) |  | > 100 µM (inactive) | > 100 µM (inactive) | 35.6 µM (inactive) | > 100 µM (inactive) | 45.7 µM (inactive) | 82.6 µM (inactive)
Cc1cc(S(=O)(=O)[N-]/C(=N/S(=O)(=O)c2ccc(Cl)cc2)[n+]2ccc(N(C)C)cc2)c(SCC(=O)O)cc1Cl | > 100 µM (inactive) | 45.4 µM (inactive) | > 100 µM (inactive) | 46.8 µM (inactive) | > 100 | > 100 µM (inactive) | 24.6 µM (inactive) | 25.2 µM (inactive) | 83.4 µM (inactive) | 52.7 µM (inactive) | > 100 µM (inactive) | 69.5 µM (inactive) | > 100 µM (inactive) | 30.7 µM (inactive) | 35.5 µM (inactive) |  | 75 µM (inactive) | 64.1 µM (inactive) | > 100 µM (inactive) | 45.3 µM (inactive)
Clc1ccccc1/C=C/c1nsc(/C=C/c2ccccc2Cl)n1 | 19 µM (inactive) | > 100 µM (inactive) | 73.8 µM (inactive) | 61 µM (inactive) | 38 | 21.6 µM (inactive) | > 100 µM (inactive) | 70.6 µM (inactive) | 60 µM (inactive) | > 100 µM (inactive) | 94 µM (inactive) | 30.1 µM (inactive) | 55.5 µM (inactive) | 54 µM (inactive) | 78.5 µM (inactive) | > 100 µM (inactive) | 70.1 µM (inactive) |  | 26.5 µM (inactive) | 22.7 µM (inactive)
N/C(=N\Nc1ccc(C(=O)O)cc1)c1cnccn1 | > 100 µM (inactive) | > 100 µM (inactive) | > 100 µM (inactive) | > 100 µM (inactive) | > 100 | < 0.01 µM (active) | > 100 µM (inactive) | > 100 µM (inactive) | > 100 µM (inactive) | > 100 µM (inactive) | > 100 µM (inactive) | > 100 µM (inactive) | > 100 µM (inactive) | > 100 µM (inactive) | > 100 µM (inactive) | > 100 µM (inactive) | > 100 µM (inactive) | > 100 µM (inactive) | > 100 µM (inactive) | 
O=C(/C=C/c1ccsc1)c1ccco1 | 12.1 µM (inactive) | 5.41 µM (inactive) |  | 16.4 µM (inactive) | 7.24 | 7.26 µM (inactive) | 14.9 µM (inactive) | 11.2 µM (inactive) | 12.7 µM (inactive) | 28.1 µM (inactive) | 11.7 µM (inactive) | 14.6 µM (inactive) | 17.1 µM (inactive) | 14.2 µM (inactive) | 14.4 µM (inactive) | 12.8 µM (inactive) | 18.5 µM (inactive) | 7.55 µM (inactive) | 17.3 µM (inactive) | 5.86 µM (inactive)
C/C(=N\NC(=S)N(C)C)c1nc2cccnc2[nH]1 | 0.597 µM (active) | 8.28 µM (inactive) | 0.792 µM (active) | 0.475 µM (active) | 0.443 | 0.323 µM (active) | 0.275 µM (active) | 0.547 µM (active) | 0.875 µM (active) | 0.399 µM (active) | 0.982 µM (active) | 0.698 µM (active) | 0.59 µM (active) |  | 0.536 µM (active) | 1.03 µM (active) | 0.413 µM (active) | 0.883 µM (active) | 2.01 µM (inactive) | 0.379 µM (active)
CC(C)(CCC(C)(C)N1OC1c1ccccc1)N1OC1c1ccccc1 (stereo not given) | 54.1 µM (inactive) | 32 µM (inactive) | 11.6 µM (inactive) |  | 28.6 | 21 µM (inactive) | 33.4 µM (inactive) |  | 26.4 µM (inactive) | 76.9 µM (inactive) | > 100 µM (inactive) | 19.9 µM (inactive) | 95.1 µM (inactive) | 44.5 µM (inactive) | 22.4 µM (inactive) | > 100 µM (inactive) | 62.8 µM (inactive) | 78 µM (inactive) | 25.1 µM (inactive) | 9.31 µM (inactive)
COc1ccc(N)c(C(=O)CCNC(C)=O)c1 [KINURENAMINE] | > 100 µM (inactive) | > 100 µM (inactive) | > 100 µM (inactive) | > 100 µM (inactive) | > 100 | > 100 µM (inactive) | > 100 µM (inactive) | > 100 µM (inactive) | > 100 µM (inactive) | > 100 µM (inactive) | > 100 µM (inactive) | > 100 µM (inactive) | > 100 µM (inactive) | > 100 µM (inactive) | > 100 µM (inactive) |  | > 100 µM (inactive) | > 100 µM (inactive) | > 100 µM (inactive) | > 100 µM (inactive)
